What was measured:
[1] = system: STZ-induced SHR rats; assay: Serum EPO content in STZ-induced SHR rats; assay type: in vivo, rat; conditions: TBN group (T60), 60 mg/kg
[2] = system: EPO mRNA; assay: EPO mRNA by RT-PCR in CoCl2-induced HepG2 cell hypoxia model; conditions: 30 μM, 24 h, HepG2 cells, 50 μM CoCl2
[3] = system: cisplatin-induced C57BL/6J mice; assay: Hepcidin level in cisplatin-induced renal anemia C57BL/6J mice; assay type: in vivo, mouse; conditions: 60 mg/kg twice/day, 4 weeks, P<0.05
Procedure: Modeling method: the animals were randomly divided into 5 groups, i.e., normal control group, model group, three treatment groups, wherein the normal control group was injected with equal volume of normal saline, the model group and three treatment groups were intraperitoneally injected with cisplatin (CDDP) 5 mg/kg once a week, for 4 weeks.
The route of administration is intragastrical. TBN is administered twice a day (fixed at 9:00-10:00 am and 3:00-4:00 pm), and Roxadustat is administered once every two days (fixed at 9:00-10:00 am), for 4 weeks.
Hepcidin is a cysteine-rich antibacterial polypeptide synthesized and secreted by the liver. It plays a negative regulatory role in the regulation of iron balance in the body and can be used to indirectly evaluate the symptoms of anemia in mice. […] Cisplatin and other chemotherapeutic drugs can cause iron regulation imbalance in mice, and TBN administration can reduce the expression level of iron regulation in the body, and thus can be used to treat cancer complicated renal anemia.

[4] = system: STZ-induced DKD rats; assay: Serum biochemical parameters of STZ-induced DKD rats; assay type: in vivo, rat; conditions: six weeks after administration, dose-dependent
Procedure: SD rats (200±10 g) were used as model animals, which were fasted for 12 h before injection. STZ was dissolved in citrate buffer at 1% concentration, and rats were fasted and intraperitoneally injected with 55 mg/kg STZ and placed in the cage, the rats being ensured with adequate water intake for 24 h. STZ injections need to be fast and complete within 10 minutes of injection. The normal control group was injected with an equal volume of pH 4.5 citric acid-sodium citrate buffer. The state of the animals (multiple drinking and polyuria) was observed. After 3 weeks of STZ injection, blood was collected from the tail vein, and fasting blood glucose ≥16.7 mmol/L was measured as the standard for diabetic nephropathy in rats.
DKD rats were randomly assigned to 6 groups and given with different drugs. After 6 weeks of administration, the experiment was terminated and the protective effect of the drug on DKD rats was observed.
Six weeks after the administration, the rats were anesthetized, and the blood was taken from the abdominal aorta, and, after standing for 1 hour, was centrifuged at 3000 rmp for 10 min and stored at −70° C. Serum levels of creatinine, urea nitrogen, cholesterol and triglycerides were measured using an automated biochemical analyzer.

[5] = system: db/db mice; assay: Urinary albumin/creatinine ratio in db/db mice, TBN alone and in combination; assay type: in vivo, mouse; conditions: TBN 30 mg/kg, Losartan 10 mg/kg, TBN+Losartan (FIG. 17)
Procedure: Grouping and dosing are the same as in Example 9. At the end of the experiment, 24 h urine samples were collected, antiseptic treatment was performed to all urine specimens with toluene, 24 h urine was centrifuged to remove precipitation and placed in a 1.5 mLEP tube and then placed in a refrigerator at −20° C. for later use, urinary albumin content was measured with ELISA kits, urine creatinine levels were detected by use of an automatic biochemical analyzer, and the ratio of both was calculated. The results as shown in FIG. 19 indicate that the ratio of urinary microalbumin to creatinine in DB/DB group was higher than that in wt/wt group, and the db/db mice 24 h urinary albumin creatinine ratio decreased in TBN group, losartan group and TBN-losartan combination group. Referring to this method, metformin (150 mg/kg, qd), and HIF-PH inhibitor roxadustat (10 mg/kg, once 2 every days) were given via oral administration, the combination groups of TBN with respectively metformin and roxadustat also reduce 24 h urinary albumin creatinine ratio.

[6] = system: STZ-induced DKD rats; assay: HE staining of kidney tissue, STZ-induced SD rat DKD model; assay type: in vivo
Procedure: Before the injection, the rats were fasted for 12 hours without water. After weighing, the rats were injected with 55 mg/kg STZ intraperitoneally (STZ needs to be injected quickly, and the injection was completed within 10 minutes), and then returned to the cage to ensure that the rats had sufficient drinking water for 24 hours. Rats were injected with an equal volume of citrate buffer (pH 4.5). After STZ injection for 3 weeks, blood was collected from the tail vein, and blood glucose ≥16.7 mmol/L was used as the criteria for the standard of the rats.
The route of administration is intragastric administration. TBN was administered twice a day (fixed at 9:00-10:00 am and 3:00-4:00 pm), and Losartan was administered once a day (fixed at 9:00-10:00 am) continuously for 6 weeks.
At the end of the experiment, kidney tissues were quickly separated, fixed with 4% paraformaldehyde and embedded in paraffin, serially sliced, 5 μm each, dried at 37° C. for 1 h, and then stained with hematoxylin and eosin (HE). The process is briefly as follows: paraffin sections were taken out of the 65° C. oven and immediately put in xylene to dewax and rehydrated with gradient alcohol, stained with hematoxylin staining solution for 10 minutes, and microscopically controlled alcohol differentiation with 1% hydrochloric acid was performed until the chromatin of the nucleus and the nucleus becomes clear; 1% ammonia water-ethanol solution is blue; 0.5% eosin Y-ethanol solution is stained for 3 min, and finally dehydrated routinely, mounted, and the tissue morphology changes are observed under a light microscope. […] The glomerular volume of rats in the DKD group of the Vehicle group increased, the mesangial area was diffusely widened, the mesangial cells were proliferated, the capillary loops were expanded, the mesangial matrix increased, and the glomerular capillary basement membrane was irregularly thickened. Renal pathological changes such as vacuole deformation, shedding of renal tubular epithelial cells and infiltration of a large number of inflammatory cells (FIG. 9A).

[7] = system: db/db mice; assay: HE histopathology of kidney tissue in db/db mice; assay type: in vivo, mouse
Source text: db/db mice are congenital obese type 2 DKD mice with spontaneous mutations in the leptin receptor (Leptin receptor, Lepr) due to a point mutation in the leptin receptor gene GT located on chromosome 4. The course of polyphagia, polyuria, diabetes and hyperglycemia is similar to that of humans, and it is currently the most widely used type 2 spontaneous animal model of DKD. The db/db mice have a series of complications with the aggravation of diabetes. The main pathological changes of renal tissue are the expansion of the glomerular mesangial interstitium, the thickening of the glomerular basement membrane, and the excessive accumulation of extracellular matrix. However, the glomerular mesangium of db/db mice changes relatively slowly, and the glomerular mesangium will not be dissolved or nodular glomerulosclerosis, and there is no progressive renal insufficiency.
Six-week-old db/db mice were purchased, and start the administration after adaptive feeding for 1 week (i.e., 7-week-old). TBN is administered twice a day (fixed by starting from 9:00-10:00 am and 3:00-4:00 pm, with an interval of 6 hours), and the positive control drug Losartan was administered once a day (fixed at 9:00-10:00 am) for 6 weeks.
The HE dyeing process is as shown in Example 9.

SMILES: Cc1nc(C)c(/C=[N+](\[O-])C(C)(C)C)nc1C [TBN]
- content of EPO in serum vs model group [1]: significantly increased
- expression of EPO mRNA [2]: significantly increase
- level of iron regulation (hepcidin) vs model group [3]: significantly reduced
- serum cholesterol [4]: significantly reduce
- serum creatinine [4]: significantly reduce
- serum triglyceride [4]: significantly reduce
- serum urea nitrogen [4]: significantly reduce
- 24 h urinary albumin creatinine ratio [5]: decreased
- renal pathological changes (HE) ([6]; 60 mg/kg i.g. twice/day, 6 weeks): improved the most
- renal pathological changes (HE) ([6]; each dose group of TBN (10, 30, 60 mg/kg i.g. twice/day, 6 weeks)): improved
- degree of infiltration of kidney inflammatory cells vs db/db group ([7]; 30 mg/kg and 60 mg/kg dose groups): obviously improved
- pathological structure of kidney injury (H&E) ([7]; TBN dose groups (10, 30, 60 mg/kg), in various degrees): improvement
- glomerular area (glomerular surface) ([7]; TBN treatment groups, dose-dependent, more significantly for 30 mg/kg and 60 mg/kg): reduced
